In ChEMBL document CHEMBL3507680, “University of Dundee, Gates Library screen for HepG2 cell viability”:

test: Human HepG2 cell viability assay in 384 well format; assay type: toxicity, cell-based; design: dose 125 nL, time 70.5 hour; concentration not given beside the values; conditions: HepG2 cells, read-out: Inhibition

Point of comparison: `O=C(Nc1cccnc1)Nc1cccc(CN2CCC(O)CC2)c1`, cytotoxicity at 70.5 h 10.2%. Against it:
- CNc1snc(C)c1C(=O)NC(C)CC(=O)c1cccs1 (centres undefined) — lower, -14.5%
- CCc1ncnc(N2CCOCC2C2CC2)c1F (centres undefined) — lower, -15.6%
- Cc1ccc(N2CCCN(C(=O)CCCn3ccnc3C)CC2)nn1 — lower, -0.226%
- COC(=O)c1ccc(N(C(=O)c2cccnc2C)C(C)C)c(C)c1 — lower, -7.81%
- N#CCCn1cnc2c(Br)cccc2c1=O — lower, -14.7%
- O=C(NCc1ccc(OCC2CC2)nc1)C1COc2ccccc2O1 (centres undefined) — lower, -5.51%
- CC(C)C(C)NC(=O)Nc1cccc(OCC#N)c1 (centres undefined) — lower, -8.7%
- Cc1cccnc1NC(=O)c1ccc(F)c(S(=O)(=O)N2CCC2)c1 — lower, -19.3%
- O=C(NC1CCN(C2CC2)CC1)c1cn(-c2ccc(Cl)cc2)nn1 — lower, -7.11%
- Cc1ccnc(NC(=O)c2ccc(F)c(S(=O)(=O)NC3CC3)c2)c1 — lower, -7.61%
- CCOc1ccc(NC(=O)NCCCN(C)S(C)(=O)=O)cc1C — lower, -15.1%
- NC(=O)CN(Cc1ncc(-c2ccccc2)o1)C1CCCC1 — lower, -7.44%
- O=C(NC1CCN(C2CC2)C1)c1cn(-c2ccc(F)cc2)nn1 (centres undefined) — lower, -6.52%
- CC(C)(C)c1nc(CC(=O)NCCC(=O)Nc2ccncc2)cs1 — lower, 5.09%
- CCOc1ccc(NC(=O)NCCS(=O)(=O)CC)cc1C — lower, -8.96%
- O=C(NCc1ccnc(OCC2CC2)c1)C1Cc2ccccc2O1 (centres undefined) — lower, -4.48%
- O=C(NC1CCCN(Cc2c(F)cccc2F)C1)c1cnccn1 (centres undefined) — lower, 1.65%
- COC(=O)c1ccc(N(C(=O)c2cscn2)C(C)C)c(C)c1 — lower, -4.28%
- CCOc1cc(NC(=O)N2CCOC3(CCC3)C2)ccc1C — lower, -5.84%
- CCOC(=O)N(C)C1CCN(Cc2cnc3ccccn23)CC1 — lower, -4.79%
- CC(Cn1cncn1)NC(=O)Nc1ccc(COC2CCCC2)cc1 (centres undefined) — lower, -1.86%
- CC(CCO)Nc1cccc(C(F)(F)F)n1 (centres undefined) — lower, 3.64%
- CC(C)c1ncc2c(n1)CN(Cc1ccc3c(c1)OCCO3)CC2 — higher, 12.6%
- CN(C1CCc2ccccc2C1)S(C)(=O)=O (centres undefined) — lower, 0.716%
- CC(CO)CSc1ncnc2[nH]ncc12 (centres undefined) — lower, -0.794%
- CC(C)COc1cncc(NC(CO)c2ccco2)n1 (centres undefined) — higher, 11.4%
- CCOc1ccccc1N(C)C(=O)c1ccc(Cl)cn1 — higher, 21.8%
- Cc1nn(C)c(C)c1OCC(=O)NCc1cccc(C(=O)O)c1 — lower, 3.51%
- CSCC(CCO)Nc1cccc(C(F)(F)F)n1 (centres undefined) — lower, -1.51%
- CC(C)C(=O)Nc1cc(C(C)(C)C)nn1-c1ccccn1 — lower, -3.18%
- c1cc(CN2CCc3cncnc3C2)c2c(c1)OCCO2 — lower, -6.07%
- CN(C)C(=O)c1ccccc1NCCCOc1cccc(C#N)c1 — higher, 13.1%
- Cc1cncc(NCC(O)c2ccco2)n1 (centres undefined) — lower, -9.53%
- C1CC(c2noc(C3CC3)n2)CN(CCOCC2CC2)C1 (centres undefined) — lower, 7.19%
- Cc1nc(C)n(CC2CCCCN2CCCN2CCCC2=O)n1 (centres undefined) — higher, 33.6%
- O=C(NCc1ccccc1CN1CCCC1)Nc1cccnc1 — lower, -4.93%
- CC(C)(C)NC(=O)CNC(=O)c1cccnc1Oc1cccnc1 — lower, -6.52%
- c1coc(-c2nc(CN3CCOC(Cn4cccn4)C3)cs2)c1 (centres undefined) — higher, 29.1%
- O=C(CN1CCOC(Cn2cccn2)C1)NC1CCN(C2CC2)CC1 (centres undefined) — lower, -6.52%
- COc1cc(C)nc(N2CCN(C(=O)CCc3cccs3)CC2)n1 — lower, -6.26%
- Cc1ccc(C(=O)NCc2ccc(N3CCNC(=O)C3)c(F)c2)cc1 — lower, -0.234%
- Cc1nc(C(=O)NCc2ccc(N3CCNC(=O)C3)c(F)c2)cs1 — lower, -5.54%
- O=C1CN(c2ccc(CNC(=O)c3cccnc3O)cc2F)CCN1 — lower, -2.79%
- COc1ncccc1CNC(=O)N(Cc1ccccc1F)C1CC1 — lower, -0.0541%
- CN(C)c1ncccc1CNC(=O)N(Cc1ccccc1F)C1CC1 — lower, -4.47%
- O=C(NCc1ccncc1)N(Cc1ccc(F)cc1F)C1CC1 — lower, -5.41%
- O=C(NCc1ccccc1CN1CCC(O)CC1)Nc1ccccc1 — lower, -0.116%
- CC(c1ccc(Cl)cc1)N1CCN(CCCS(C)(=O)=O)CC1 (centres undefined) — lower, 1.48%
- CC(c1ccc(Cl)cc1)N1CCN(CCS(N)(=O)=O)CC1 (centres undefined) — lower, -0.779%
- CC(c1ccc(C(F)(F)F)cc1)N1CCN(CCS(C)(=O)=O)CC1 (centres undefined) — lower, -1.96%
- O=C1CN(c2ccc(CNC(=O)c3ccc[nH]3)cc2F)CCN1 — lower, 1.47%
- CCN(CC1CCCO1)C(=O)Nc1cccc(N2CCOCC2)c1 (centres undefined) — lower, 0.519%
- COC(C)c1nc(CN2CCCNCC2)cs1 (centres undefined) — lower, -3.19%
- Cc1cccc(-c2noc(CN3CCC(c4ccn[nH]4)CC3)n2)c1 — lower, -1.2%
- COCCn1cc(C(=O)N2CCCC2c2cccc(C)c2)ccc1=O (centres undefined) — lower, -4.94%
- c1cc(C2CCN(Cc3nc(C4CC4)no3)CC2)[nH]n1 — lower, -6.11%
- CCN(C)S(=O)(=O)N1CCCC1CC(=O)c1cccs1 (centres undefined) — higher, 32.3%
- CCN(CC)S(=O)(=O)N1CCCC1CC(=O)c1cccs1 (centres undefined) — lower, -4.6%
- COCc1noc(C2(c3ccc(F)cc3)CC2)n1 — higher, 12.6%
- CC(C)(C)c1nnc(CNc2cc(F)ccc2OCC2CCCO2)o1 (centres undefined) — higher, 32.8%
- CCC(CNC(=O)c1ccccc1OC)N1CCc2ccccc2C1 (centres undefined) — lower, 7.61%
- CCC(CNC(=O)c1ccccc1Br)N1CCc2ccccc2C1 (centres undefined) — lower, -9.67%
- Cc1csc(CNC(=O)NCC(O)c2ccc(F)cc2)n1 (centres undefined) — lower, -12.5%
- CCC(CNC(=O)c1ccco1)N1CCc2ccccc2C1 (centres undefined) — lower, -12.8%
- O=C(NCC1(N2CCOCC2)CCSC1)Nc1ccccn1 (centres undefined) — lower, -9.14%
- Cc1ccc(CN(C(=O)NCc2nnc3n2CCCCC3)C2CC2)o1 — lower, -10.9%
- O=C(NCc1nnc2n1CCC2)N(Cc1ccc(F)cc1)C1CC1 — lower, -8.55%
- CC(C)CCCC(C)NC(=O)c1ccc(OCC(N)=O)cc1 (centres undefined) — lower, -6.3%
- O=C(CN1C(=O)c2ccccc2CS1(=O)=O)c1ccc(Cl)cc1 — lower, 7.63%
- O=C(NCc1nnc2n1CCCCC2)N(Cc1ccccn1)C1CC1 — lower, 0.752%
- COC(=O)c1cccc(S(=O)(=O)N2CSCC2C(=O)N(C)C2CC2)c1 (centres undefined) — higher, 12.1%
- CC(=O)c1cccc(OCCCC(=O)N(C)Cc2cnc(C)s2)c1 — lower, -6.22%
- O=C(NCc1ccc(F)cc1)NCC1(N2CCOCC2)CCSC1 (centres undefined) — lower, 7.3%
- COCc1noc(C2(c3ccc(Cl)cc3)CCOCC2)n1 — lower, -6.8%
- C=C(C)CN1CCC(NC(=O)Nc2cc(C(N)=O)ccc2OC)CC1 — lower, -2.27%
- C=C(C)CN1CCC(NC(=O)NCCc2cccc(C(N)=O)c2)CC1 — lower, -3.95%
- CC(=O)c1cccc(OCCCC(=O)N(C)Cc2cscn2)c1 — lower, 7.32%
- CCNC(=O)CCC(=O)NC1(c2cccc(Br)c2)CC1 — lower, -2.97%
- Cc1ncccc1C(=O)NCc1ccccc1CN(C)Cc1ccco1 — lower, -1.05%
- Cc1ccsc1C(=O)Nc1ccc(N2CCC(O)CC2)c(C#N)c1 — lower, -0.649%
- Cc1ccc(C(=O)Nc2ccc(N3CCC(O)CC3)c(C#N)c2)s1 — higher, 29.7%
- N#Cc1cc(NC(=O)c2cscn2)ccc1N1CCC(O)CC1 — lower, -4.48%
- N#Cc1cc(NC(=O)c2ccccn2)ccc1N1CCC(O)CC1 — lower, -3.91%
- COc1ccccc1OCC(=O)NS(=O)(=O)c1ccc(Cl)cc1F — higher, 13.3%
- O=C(NCCc1nnc2n1CCC2)N(Cc1ccco1)C1CCCC1 — lower, -6.25%
- CC(=O)c1cccc(OCCCC(=O)N(C)Cc2cnn(C)c2)c1 — lower, 9.09%
- CCOCC(=O)NC1(c2cccc(Cl)c2)CC1 — lower, -8.22%
- COCCCC(=O)NC1(c2cccc(Br)c2)CC1 — lower, 8.13%
- CCc1nc(CNc2cc(Cl)ccc2OCC2CCCO2)no1 (centres undefined) — lower, -8.62%
- COc1cccc(OCC(=O)NS(=O)(=O)c2cc(F)ccc2F)c1 — lower, -5.46%
- CC(O)(CNC(=O)NCc1cccc(-n2cncn2)c1)c1ccco1 (centres undefined) — lower, 7.59%
- COc1ccc(C(C)NC(=O)Nc2nnc(C)s2)cc1OC (centres undefined) — lower, 2.44%
- CC(NC(=O)CCc1nc(C(C)(C)C)no1)c1nnc2n1CCC2 (centres undefined) — lower, -7.28%
- O=C(NCCNC(=O)C1CC1)c1cnc(-c2ccccc2)nc1 — higher, 16.6%
- CCN(CC)CCNC(=O)c1cnc(-c2ccccc2)nc1 — lower, -7.78%
- OC1CCN(c2cnnc3ccccc23)CC1 — higher, 30.5%
- COCc1cccc(CNC(=O)CNc2ccccc2C(C)=O)c1 — lower, 1.21%
- COCc1ccccc1CNC(=O)CNc1ccccc1C(C)=O — lower, 2.64%
- CN(C(=O)C1(C#N)CCCCC1)c1nccs1 — lower, -0.486%
- CC(C)Oc1cccc(CNC(=O)N2CCC(N3CC=CC3)C2)c1 (centres undefined) — higher, 26.6%
- c1ccc(N(CCn2cncn2)CC2CC2)cc1 — lower, -4.37%
- NC(=O)C1CCCN1C(=O)c1cccc2c1OCO2 (centres undefined) — lower, -1.57%
- COCc1ccccc1CNC(=O)CNc1cccc(Cl)c1OC — lower, -2.8%
- CC(C)Nc1cccc(CNC(=O)N2CCC(N3CC=CC3)C2)c1 (centres undefined) — higher, 30.6%
- Cc1nc(CCNC(C)c2ccc3c(c2)OCCCO3)cs1 (centres undefined) — lower, 0.884%
- Cc1ccccc1CN1CCCN(C(=O)c2ccn(C)c(=O)c2)CC1 — lower, -1.43%
- COC(=O)c1ccc(CNC(C)(C)c2ccccc2OC)o1 — lower, -6.94%
- Cc1nn(CCC#N)c(C)c1CCC(=O)N(C)Cc1ccc(F)cc1F — lower, -4.98%
- CN(Cc1nc2ccsc2c(=O)[nH]1)CC1CCCCC1 — lower, -6.1%
- COCCn1cc(NC(=O)NCC2CCN(c3ccccc3)C2)cn1 (centres undefined) — lower, -3.34%
- Cc1nn(CCC#N)c(C)c1CCC(=O)N(C)Cc1ccsc1 — lower, -8.77%
- Cc1n[nH]c(C(=O)N2CCCC(C)CC2)c1Br (centres undefined) — lower, -5.15%
- CCC1CN(C(=O)c2[nH]nc(C)c2Br)CCO1 (centres undefined) — lower, -6.3%
- Cc1ccccc1S(=O)(=O)NC(=O)C1(c2cccc(Cl)c2)CC1 — lower, -5.62%
- CCOc1ncccc1C(=O)N1CC=C(c2ccc(O)cc2)CC1 — lower, -6.39%
- CN(C)c1ccc(CCCNC(=O)NCC(O)c2ccsc2)cc1 (centres undefined) — lower, -3.63%
- CCc1nc(C2CCCN2c2ncc(Br)cn2)no1 (centres undefined) — lower, -6.32%
- COCCCn1ccc(NC(=O)NCCc2cccnc2)n1 — lower, -6.28%
